Key:
Type in all cases: in vivo
[1] = test system: Alopecurus myosuroides (ALOMY); experiment: B1 Pre-emergence herbicidal activity; design: key: 5=total damage to plant; 0=no damage to plant; conditions: pre-emergence application, rate 1000 g/ha, evaluated after 13 days
Method in brief: (§1)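 Sow in soil → 1 d glasshouse (24/16 °C, 14 h light, 65% RH) → spray pre-emergence (acetone/water 50:50, 0.5% Tween 20) → grow 13 d, water twice daily → score 0–5 (5 = total damage).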

Avena fatua (AVEFA) [2] = experiment: B1 Pre-emergence herbicidal activity; design: key: 5=total damage to plant; 0=no damage to plant; conditions: pre-emergence application, rate 1000 g/ha, evaluated after 13 days
Method in brief: as §1

[3] = test system: Triticum aestivium (TRZAW); experiment: B1 Pre-emergence herbicidal activity; design: key: 5=total damage to plant; 0=no damage to plant; conditions: pre-emergence application, rate 1000 g/ha, evaluated after 13 days
Method in brief: as §1

[4] = test system: Echinochloa crus-galli (ECHCG); experiment: B1 Pre-emergence herbicidal activity; conditions: pre-emergence application, rate 1000 g/ha, evaluated after 13 days
Method in brief: as §1

Lolium perenne (LOLPE) [5] = experiment: B1 Pre-emergence herbicidal activity; design: key to Pre-emergence herbicidal activity, LOLPE (damage score 0-5): 5=total damage to plant; 0=no damage to plant; conditions: pre-emergence application, rate 1000 g/ha, evaluated after 13 days
Method in brief: as §1

Setaria fabenr (SETFA) = experiment: B1 Pre-emergence herbicidal activity; design: key to Pre-emergence herbicidal activity, SETFA (damage score 0-5): 5=total damage to plant; 0=no damage to plant; conditions: pre-emergence application, rate 1000 g/ha, evaluated after 13 days
Method in brief: as §1

Avena fatua (AVEFA) [6] = experiment: B2 Post-emergence herbicidal activity; conditions: post-emergence application, rate 1000 g/ha, evaluated after 13 days
Method in brief: (§2)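 Test seeds are sown in standard soil and raised for 8 days under controlled glasshouse conditions (24/16 °C, 14 h light, 65% humidity). Foliage is then sprayed with compound formulated in 50:50 acetone/water plus 0.5% Tween 20, and plants are rated 0–5 for damage after 13 days.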

[7] = test system: Echinochloa crus-galli (ECHCG); experiment: B2 Post-emergence herbicidal activity; design: key to Post-emergence herbicidal activity, ECHCG (damage score 0-5): 5=total damage to plant; 0=no damage to plant; conditions: post-emergence application, rate 1000 g/ha, evaluated after 13 days
Method in brief: as §2

Lolium perenne (LOLPE) [8] = experiment: B2 Post-emergence herbicidal activity; conditions: post-emergence application, rate 1000 g/ha, evaluated after 13 days
Method in brief: as §2

[9] = test system: Alopecurus myosuroides (ALOMY); experiment: B2 Post-emergence herbicidal activity; design: key: 5=total damage to plant; 0=no damage to plant; conditions: post-emergence application, rate 1000 g/ha, evaluated after 13 days
Method in brief: as §2

Setaria fabenri (SETFA) = experiment: B2 Post-emergence herbicidal activity; design: key: 5=total damage to plant; 0=no damage to plant; conditions: post-emergence application, rate 1000 g/ha, evaluated after 13 days
Method in brief: as §2

[10] = test system: Triticum aestivium (TRZAW); experiment: B2 Post-emergence herbicidal activity; design: key: 5=total damage to plant; 0=no damage to plant; conditions: post-emergence application, rate 1000 g/ha, evaluated after 13 days
Method in brief: as §2

Row | SMILES | Pre-emergence herbicidal activity, ALOMY (damage score 0-5) [1] | Pre-emergence herbicidal activity, AVEFA (damage score 0-5) (Avena fatua (AVEFA) [2]) | Pre-emergence herbicidal activity, TRAZW (damage score 0-5) [3] | Pre-emergence herbicidal activity, ECHCG (damage score 0-5) [4] | Pre-emergence herbicidal activity, LOLPE (damage score 0-5) (Lolium perenne (LOLPE) [5]) | Pre-emergence herbicidal activity, SETFA (damage score 0-5) (Setaria fabenr (SETFA)) | Post-emergence herbicidal activity, AVEFA (damage score 0-5) (Avena fatua (AVEFA) [6]) | Post-emergence herbicidal activity, ECHCG (damage score 0-5) [7] | Post-emergence herbicidal activity, LOLPE (damage score 0-5) (Lolium perenne (LOLPE) [8]) | Post-emergence herbicidal activity, ALOMY (damage score 0-5) [9] | Post-emergence herbicidal activity, SETFA (damage score 0-5) (Setaria fabenri (SETFA)) | Post-emergence herbicidal activity, TRAZW (damage score 0-5) [10]
1 | CCOC(=O)CC(=O)Nc1ccc(-c2cncc(F)c2)nc1C(F)(F)F [Compound C42] | 0 | 2 | 0 | 4 | 1 | 4 | 4 | 5 | 2 | 0 | 5 | 1
2 | COCC(=O)Nc1ccc(-c2cncc(F)c2)nc1C#N [Compound C114, N-[2-cyano-6-(5-fluoro-3-pyridyl)-3-pyridyl]-2-methoxy-acetamide] | 0 | 1 | 0 | 4 | 0 | 5 | 2 | 4 | 1 | 1 | 5 | 1
3 | CC(C)C(=O)N(CC#N)c1ccc(-c2cncc(F)c2)nc1C(F)(F)F [Compound C58] | 0 | 0 | 0 | 3 | 0 | 5 | 2 | 4 | 1 | 0 | 5 | 0
4 | O=C1CCCCN1c1ccc(-c2cncc(F)c2)nc1C(F)(F)F [Compound C54, 1-[6-(5-fluoro-3-pyridyl)-2-(trifluoromethyl)-3-pyridyl]piperidin-2-one] | 0 | 1 | 0 | 2 | 1 | 3 | 3 | 5 | 3 | 1 | 4 | 0

Source: patent publication US11230538B2, “Herbicides” (SYNGENTA PARTICIPATIONS AG, priority 2016, dated 2022)
